{"source": "patent US20250130225A1", "about": "“SUBSTRATES FOR IMAGING GLUCOCEREBROSIDASE ACTIVITY” (SIMON FRASER UNIVERSITY, priority 2021, published 2025)", "key": {"[1]": {"target": "T1, GCase (Homo sapiens, UniProt P04062)", "T1 construct": "High content imaging of SK-N-SH cells incubated for 2 h; endogenous in cells; host or cells: SK-N-SH", "T1 sequence (P04062 40-536)": "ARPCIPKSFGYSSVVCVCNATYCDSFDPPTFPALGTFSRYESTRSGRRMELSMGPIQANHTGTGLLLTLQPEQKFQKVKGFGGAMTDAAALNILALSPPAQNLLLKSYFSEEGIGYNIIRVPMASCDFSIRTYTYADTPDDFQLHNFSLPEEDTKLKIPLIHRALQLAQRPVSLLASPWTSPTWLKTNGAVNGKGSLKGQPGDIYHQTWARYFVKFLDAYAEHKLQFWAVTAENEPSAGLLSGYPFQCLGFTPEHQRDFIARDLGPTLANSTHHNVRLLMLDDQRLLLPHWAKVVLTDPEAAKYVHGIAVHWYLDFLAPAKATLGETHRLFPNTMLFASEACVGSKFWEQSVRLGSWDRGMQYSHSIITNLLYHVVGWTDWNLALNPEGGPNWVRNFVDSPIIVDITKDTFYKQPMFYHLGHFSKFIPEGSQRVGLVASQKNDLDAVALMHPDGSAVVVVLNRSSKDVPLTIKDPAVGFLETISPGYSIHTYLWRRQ", "experiment": "GCase inhibition by AT3375 in live SK-N-SH cells read with substrate 1", "type": "cell-based", "settings": "10 μM AT3375 with 5 μM substrate 1, 2 h", "method": "After incubation at 37° C. and 5% CO2 for 2 h, the media was removed and the cells were washed.\nAfter incubation at 37° C. and 5% CO2 for 2 h, the media was removed, and the cells were washed. The plate was then imaged using a Molecular Devices ImageXpress XLS High-Content Imager. From the images, the total mean integrated intensity was measured for the FITC channel and divided by the number of cells within the imaging site as determined by the DAPI staining."}, "[2]": {"target": "T2, purified recombinant GCase (Homo sapiens, UniProt P04062)", "T2 construct": "purchased R&D Systems", "T2 sequence (P04062 40-536)": "T1 sequence (P04062 40-536)", "experiment": "In-vitro kinetic assay with purified recombinant GCase", "type": "biochemical", "settings": "same kinetic assay, substrate 3 vs 9b", "protocol": "(§1) In-vitro kinetic assay for substrate 1. Continuous assays were performed at 30° C. in citrate-phosphate buffer (150 mM; pH 5.4) containing 0.25% taurodeoxycholate. The concentrations of substrate 1 used in assays were 0.39, 0.78, 1.56, 3.13 6.25, 12.5, 25 and 50 μM. Reactions were initiated by the addition of purified recombinant GCase (2.5 nM, R&D Systems) and the reaction was monitored continuously over 1200 seconds to determine the initial rate of change of fluorescence. Standard curves were constructed using BODIPY® Fl-acid using the same buffer conditions. […] Assays were carried out in triplicate.\nas §1, with “Comparative In-vitro” for “In-vitro”, “substrate 3 and 9b.” for “substrate 1.”, “of substrates 3 and 9b” for “of substrate 1”, “were 0.156, 0.313, 0.625, 1.25, 2.5, 5, 10,” for “were 0.39, 0.78, 1.56, 3.13 6.25, 12.5, 25”, “and 20” for “and 50”, “using TAMRA and BODIPY-576” for “using BODIPY® Fl-acid”"}, "[3]": {"experiment": "Fluorescence emission spectrum and quenching efficiency of substrate 1 versus BODIPY FL-acid", "type": "physicochemical", "protocol": "Fluorescence emission spectra for substrate 1 and BODIPY® FL-acid: The emission spectra were obtained for substrate 1 and BODIPY® FL-acid in citrate-phosphate buffer (150 mM; pH 5.4) containing 1% DMSO and 0.25% taurodeoxycholate. Data were collected using a Molecular Devices plate reader ([…]). […] The excitation wavelength used was 485 nm and the emission wavelength was 513 nm.\nDetermination of the quenching efficiencies for substrate 1 using concentration dependent variation in the fluorescence emission of substrate 1 and its corresponding fluorophore BODIPY® FL-acid: The quenching efficiencies were determined by comparing the fluorescence emission standard curves of substrate 1 and comparing it to that of BODIPY® Fl-acid."}}}
{"smiles": "O[C@H]1[C@H](O)CNC[C@@H]1C(F)F", "note": "[AT3375, (3R,4R,5S)-5-(difluoromethyl)piperidine-3,4-diol]", "values": [{"measurement": "effect on fluorescent signal from substrate 1", "setting": "[1]", "value": "significant reduction of the punctuated fluorescent signal"}]}
{"smiles": "COc1cc(/N=N/c2ccc([N+](=O)[O-])cc2)c(OC)cc1/N=N/c1ccc(N(C)CCCC(=O)NCCc2ccc(O[C@@H]3O[C@H](COCCCCn4cc(CNC(=O)[C@H](CCCCN(C)C)NC(=O)c5ccc(-c6c7ccc(=[N+](C)C)cc-7oc7cc(N(C)C)ccc67)c(C(=O)O)c5)nn4)[C@@H](O)[C@H](O)[C@H]3O)cc2)cc1", "note": "[substrate 3, 5-(((S)-1-(((1-(4-(((2R,3S,4S,5R,6S)-6-(4-(2-(4-((4-((E)-(2,5-dimethoxy-4-((E)-(4-nitrophenyl)diazenyl)phenyl)diazenyl)phenyl)(methyl)amino)butanamido)ethyl)phenoxy)-3,4,5-trihydroxytetrahydro-2H-pyran-2-yl)methoxy)butyl)-1H-1,2,3-triazol-4-yl)methyl)amino)-6-(dimethylamino)-1-oxohexan-2-yl)carbamoyl)-2-(6-(dimethylamino)-3-(dimethyliminio)-3H-xanthen-9-yl)benzoate]", "values": [{"measurement": "second order rate constant relative to 9b", "setting": "[2]", "value": "more than 5 fold"}]}
{"smiles": "COc1cc(/N=N/c2ccc(C)cc2[N+](=O)[O-])c(C)cc1/N=N/c1ccc(N(C)CCCC(=O)NCCCO[C@@H]2O[C@H](COCc3cn(CCCNC(=O)[C@H](CCCCN(C)C)NC(=O)CCC4=[N+]5C(=Cc6c(C)cc(C)n6[B-]5(F)F)C=C4)nn3)[C@@H](O)[C@H](O)[C@H]2O)cc1", "note": "[substrate 1, (S)-2-(3-(5,5-difluoro-7,9-dimethyl-dipyrrolo[1,2-c:2′,1′-f][1,3,2]diazaborinin-4-ium-5-uid-3-yl)propanamido)-6-(dimethylamino)-N-(3-(4-((((2R,3S,4S,5R,6R)-3,4,5-trihydroxy-6-(3-(4-((4-((E)-(2-methoxy-5-methyl-4-((E)-(4-methyl-2-nitrophenyl)diazenyl)phenyl)diazenyl)phenyl)(methyl)amino)butanamido)propoxy)tetrahydro-2H-pyran-2-yl)methoxy)methyl)-1H-1,2,3-triazol-1-yl)propyl)hexanamide]", "values": [{"measurement": "fluorescence emission of intact substrate compared to free fluorophore BODIPY FL-acid", "setting": "[3]; 6.25 μM, citrate-phosphate buffer 150 mM, pH 5.4, excitation 485 nm, emission 513 nm", "value": "strikingly little fluorescence"}, {"measurement": "quenching efficiency", "setting": "[3]; fluorescence emission standard curves compared to BODIPY Fl-acid", "value": "greater than 99.7%"}]}
